The record followed here is patent US20260285857A1, “BICYCLIC AND HETEROCYCLIC AMIDE COMPOUNDS” (priority 2024, published 2026).

This assay concerns immunoglobulin light chain protein WIL-FL T46L. The assay is described as follows: Differential scanning fluorimetry (thermal shift) assay. Conditions: Table B; temperature shift [Tm]compound-[Tm]vehicle; recombinant WIL-FL T46L. Format: binding. For orientation: In DSF a fluorescence change marks the thermal transition of the protein.

Regarding `Cc1cc(N2CC[C@](C)(c3ccccc3)C2)cn2nc(C34CC(CO3)C4N3CC4(COC4)NC3=O)nc12` (stereo partly drawn) [Compound 509, 7-(1-(8-methyl-6-((R)-3-methyl-3-phenylpyrrolidin-1-yl)-[1,2,4]triazolo[1,5-a]pyridin-2-yl)-2-oxabicyclo[2.1.1]hexan-5-yl)-2-oxa-5,7-diazaspiro[3.4]octan-6-one], the DSF entry is on record as “***** (>2.5° C.=*****)”.
Next, `Cc1cc(N2CC[C@](C)(c3ccccc3)C2)cn2nc(C34CC(CO3)C4NCC3(N)COC3)nc12` (stereo partly drawn) [Compound 510, N-[(3-aminooxetan-3-yl)methyl]-1-[8-methyl-6-[(3R)-3-methyl-3-phenyl-pyrrolidin-1-yl]-[1,2,4]triazolo[1,5-a]pyridin-2-yl]-2-oxabicyclo[2.1.1]hexan-5-amine]: “***** (>2.5° C.=*****)”; `Cc1cc(N2CC[C@](C)(c3ccccc3)C2)cn2nc(C34CC(CO3)C4N3CC4(CC(CO)C4)NC3=O)nc12` (stereo partly drawn) [Compound 511]: “***** (>2.5° C.=*****)”.
In the case of `Cc1cc(N2CC3(CCC3c3cccc(F)c3)C2)cn2nc(C34CC(CO3)C4N3CC4(CC4)NC3=O)nc12` (stereo not drawn) [Compound 512, 6-[1-[6-[7-(3-fluorophenyl)-2-azaspiro[3.3]heptan-2-yl]-8-methyl-[1,2,4]triazolo[1,5-a]pyridin-2-yl]-2-oxabicyclo[2.1.1]hexan-5-yl]-4,6-diazaspiro[2.4]heptan-5-one], the DSF result is “***** (>2.5° C.=*****)”.
For `Cc1cc(N2CC[C@](C)(c3ccccc3Cl)C2)cn2nc(C34CC(CO3)C4N3CC4(CC4)NC3=O)nc12` (stereo partly drawn) [Compound 513, 6-[1-[6-[(3R)-3-(2-chlorophenyl)-3-methyl-pyrrolidin-1-yl]-8-methyl-[1,2,4]triazolo[1,5-a]pyridin-2-yl]-2-oxabicyclo[2.1.1]hexan-5-yl]-4,6-diazaspiro[2.4]heptan-5-one], the DSF entry is “***** (>2.5° C.=*****)”.
For `Cc1cc(N2CC[C@](C)(c3ccccc3)C2)cn2nc(C34CC(CO3)C4N3CC4(CNC4)NC3=O)nc12` (stereo partly drawn) [Compound 515] the value was “***** (>2.5° C.=*****)”; for `Cc1cc(N2CC[C@](C)(c3ccccc3)C2)cn2nc(C34CC(CO3)C4N3CC4(CN(c5cccc(C(=O)O)n5)C4)NC3=O)nc12` (stereo partly drawn) [Compound 516], “***** (>2.5° C.=*****)”; for `Cc1cc(N2CC[C@](C)(c3ccccc3)C2)cn2nc(C34CC(CO3)C4N3CC4(CN(C(=O)C5CC[C@@H](C(=O)O)O5)C4)NC3=O)nc12` (stereo partly drawn) [Compound 517], “***** (>2.5° C.=*****)”.
For `COC(C)(CC(=O)N1CC2(C1)CN(C1C3COC1(c1nc4c(C)cc(N5CC[C@](C)(c6ccccc6)C5)cn4n1)C3)C(=O)N2)C(=O)O` (stereo partly drawn) [Compound 518] the value was “***** (>2.5° C.=*****)”; for `Cc1cc(N2CC[C@](C)(c3ccccc3)C2)cn2nc([C@@]34C[C@@H](CO3)[C@H]4N3CC4(CN(c5cccc(C(=O)O)n5)C4)NC3=O)nc12` [Compound 519], “***** (>2.5° C.=*****)”.
Take `Cc1cc(N2CC[C@](C)(c3ccccc3)C2)cn2nc([C@]34C[C@H](CO3)[C@@H]4N3CC4(CN(c5cccc(C(=O)O)n5)C4)NC3=O)nc12` [Compound 520]: the DSF result is listed as “***** (>2.5° C.=*****)”.
For `Cc1cc(N2CC[C@](C)(c3ccccc3)C2)cn2nc(C34CC(CO3)C4NCC3(N)CCOCC3)nc12` (stereo partly drawn) [Compound 521] the value was “***** (>2.5° C.=*****)”; for `Cc1cc(N2CC[C@](C)(c3ccccc3)C2)cn2nc(C34CC(CO3)C4N3CC4(CCOCC4)NC3=O)nc12` (stereo partly drawn) [Compound 522], “***** (>2.5° C.=*****)”; for `Cc1cc(N2CC[C@](C)(c3ccccc3)C2)cn2nc([C@]34C[C@H](CO3)[C@@H]4N3CC4(CC4)NC3=O)nc12` [Compound 523], “***** (>2.5° C.=*****)”.
`Cc1cc(N2CC[C@](C)(c3ccccc3)C2)cn2nc([C@@]34C[C@@H](CO3)[C@H]4N3CC4(CC4)NC3=O)nc12` [Compound 524]: the DSF result is given as “***** (>2.5° C.=*****)”.
Take `Cc1cc(N2CC[C@](C)(c3ccccc3)C2)cn2nc(C34CC(CO3)C4N3C[C@]4(CC[C@H](C(=O)O)CC4)NC3=O)nc12` (stereo partly drawn) [Compound 525]: the DSF result is given as “***** (>2.5° C.=*****)”.
For the compound `Cc1cc(N2CC[C@](C)(c3ccccc3)C2)cn2nc(C34CC(CO3)C4N3C[C@]4(CC[C@@H](C(=O)O)CC4)NC3=O)nc12` (stereo partly drawn) [Compound 526], the DSF entry is “***** (>2.5° C.=*****)”.
Next, `Cc1cc(N2CC[C@](C)(c3ccccc3)C2)cn2nc(C34CC(CO3)C4N3CCOCC3)nc12` (stereo partly drawn) [Compound 527, 4-(1-(8-methyl-6-((R)-3-methyl-3-phenylpyrrolidin-1-yl)-[1,2,4]triazolo[1,5-a]pyridin-2-yl)-2-oxabicyclo[2.1.1]hexan-5-yl)morpholine]: “***** (>2.5° C.=*****)”; `Cc1cc(N2CC[C@](C)(c3ccccc3)C2)cn2nc(C34CC(CO3)C4NCC(C)(C)O)nc12` (stereo partly drawn) [Compound 528, 2-methyl-1-[[1-[8-methyl-6-[(3R)-3-methyl-3-phenyl-pyrrolidin-1-yl]-[1,2,4]triazolo[1,5-a]pyridin-2-yl]-2-oxabicyclo[2.1.1]hexan-5-yl]amino]propan-2-ol]: “***** (>2.5° C.=*****)”.
Next, `Cc1cc(N2CC[C@](C)(c3ccccc3)C2)cn2nc(C34CC(CO3)C4N3CC(C)(C)OC3=O)nc12` (stereo partly drawn) [Compound 529, 5,5-dimethyl-3-[1-[8-methyl-6-[(3R)-3-methyl-3-phenyl-pyrrolidin-1-yl]-[1,2,4]triazolo[1,5-a]pyridin-2-yl]-2-oxabicyclo[2.1.1]hexan-5-yl]oxazolidin-2-one]: “***** (>2.5° C.=*****)”; `Cc1cc(N2CC[C@](C)(c3ccccc3)C2)cn2nc(C34CC(CO3)C4NC3(C#N)CC3)nc12` (stereo partly drawn) [Compound 530, 1-((1-(8-methyl-6-((R)-3-methyl-3-phenylpyrrolidin-1-yl)-[1,2,4]triazolo[1,5-a]pyridin-2-yl)-2-oxabicyclo[2.1.1]hexan-5-yl)amino)cyclopropane-1-carbonitrile]: “***** (>2.5° C.=*****)”; `Cc1cc(N2CC[C@](C)(c3ccccc3)C2)cn2nc(C34CC(CO3)C4N3CC4(CCN(c5cccc(C(=O)O)n5)C4)NC3=O)nc12` (stereo partly drawn) [Compound 531, 6-[3-[1-[8-methyl-6-[(3R)-3-methyl-3-phenyl-pyrrolidin-1-yl]-[1,2,4]triazolo[1,5-a]pyridin-2-yl]-2-oxabicyclo[2.1.1]hexan-5-yl]-2-oxo-1,3,7-triazaspiro[4.4]nonan-7-yl]pyridine-2-carboxylic acid]: “***** (>2.5° C.=*****)”.
Next, `Cc1cc(N2CC[C@](C)(c3ccccc3)C2)cn2nc(C34CC(CO3)C4N3CC4(CCC4)NC3=O)nc12` (stereo partly drawn) [Compound 532, 7-(1-(8-methyl-6-((R)-3-methyl-3-phenylpyrrolidin-1-yl)-[1,2,4]triazolo[1,5-a]pyridin-2-yl)-2-oxabicyclo[2.1.1]hexan-5-yl)-5,7-diazaspiro[3.4]octan-6-one]: “***** (>2.5° C.=*****)”; `Cc1cc(N2CC[C@](C)(c3ccccc3)C2)cn2nc(C34CC(CO3)C4NC(=O)C3(C)CN(c4cccc(C(=O)O)n4)C3)nc12` (stereo partly drawn) [Compound 533, 6-(3-methyl-3-((1-(8-methyl-6-((R)-3-methyl-3-phenylpyrrolidin-1-yl)-[1,2,4]triazolo[1,5-a]pyridin-2-yl)-2-oxabicyclo[2.1.1]hexan-5-yl)carbamoyl)azetidin-1-yl)picolinic acid]: “***** (>2.5° C.=*****)”.
Take `C[C@]1(c2ccccc2)CCN(c2cc(CO)c3nc(C45CC(CO)(CO4)C5C(N)=O)nn3c2)C1` (stereo partly drawn) [Compound 536]: the DSF entry is given as “***** (>2.5° C.=*****)”.
Next, `Cc1cc(N2CC[C@](C)(c3ccccc3)C2)cn2nc(C34CC(C(=O)O)(CO3)C4C(=O)O)nc12` (stereo partly drawn) [Compound 537, 1-(8-methyl-6-((R)-3-methyl-3-phenylpyrrolidin-1-yl)-[1,2,4]triazolo[1,5-a]pyridin-2-yl)-2-oxabicyclo[2.1.1]hexane-4,5-dicarboxylic acid]: “**** (>1.5-2.5° C.=****)”.
For `Cc1n[nH]c(C2C3(NC(=O)[C@@H]4CC[C@H](C(=O)O)O4)COC2(c2nc4c(C)cc(N5CC[C@](C)(c6ccccc6)C5)cn4n2)C3)n1` (stereo partly drawn) [Compound 538, (2R,5S)-5-((5-(3-methyl-1H-1,2,4-triazol-5-yl)-1-(8-methyl-6-((R)-3-methyl-3-phenylpyrrolidin-1-yl)-[1,2,4]triazolo[1,5-a]pyridin-2-yl)-2-oxabicyclo[2.1.1]hexan-4-yl)carbamoyl)tetrahydrofuran-2-carboxylic acid] the value was “***** (>2.5° C.=*****)”.
For `Cc1cc(N2CC[C@](C)(c3ccccc3)C2)cn2nc(C34CC(N)(CO3)C4c3nc(C)n(C)n3)nc12` (stereo partly drawn) [Compound 539] the value was “***** (>2.5° C.=*****)”.
In the case of `CC(=O)NC12COC(c3nc4c(C)cc(N5CC[C@](C)(c6ccccc6)C5)cn4n3)(C1)C2c1nc(C)n(C)n1` (stereo partly drawn) [Compound 540], the DSF entry was “***** (>2.5° C.=*****)”.
Next, `Cc1nc([C@H]2[C@@]3(C(C)(C)O)CO[C@]2(c2nc4c(C)cc(N5CC[C@](C)(c6ccccc6)C5)cn4n2)C3)n[nH]1` [Compound 541]: “***** (>2.5° C.=*****)”.
Regarding `Cc1nc([C@@H]2[C@]3(C(C)(C)O)CO[C@@]2(c2nc4c(C)cc(N5CC[C@](C)(c6ccccc6)C5)cn4n2)C3)n[nH]1` [Compound 542], the DSF result is “***** (>2.5° C.=*****)”.
For `CC(=O)N[C@@]12CO[C@@](c3nc4c(C)cc(N5CC[C@](C)(c6ccccc6)C5)cn4n3)(C1)[C@@H]2CO` [Compound 544, N-((1S,4S,5S)-5-(hydroxymethyl)-1-(8-methyl-6-((R)-3-methyl-3-phenylpyrrolidin-1-yl)-[1,2,4]triazolo[1,5-a]pyridin-2-yl)-2-oxabicyclo[2.1.1]hexan-4-yl)acetamide] the value was “***** (>2.5° C.=*****)”.
Next, `Cc1cc(N2CC[C@](C)(c3ccccc3)C2)cn2nc(C34CC(C(=O)O)(CO3)C4c3nc(N)n[nH]3)nc12` (stereo partly drawn) [Compound 545, 5-(3-amino-1H-1,2,4-triazol-5-yl)-1-[8-methyl-6-[(3R)-3-methyl-3-phenyl-pyrrolidin-1-yl]-[1,2,4]triazolo[1,5-a]pyridin-2-yl]-2-oxabicyclo[2.1.1]hexane-4-carboxylic acid]: “***** (>2.5° C.=*****)”.
